From patent publication US6503545B1 (Brandeis University, priority 1999, dated 2003)
Like-named read-outs stand apart in the source and are kept apart here.

Columns and labels:
[1] = cited from earlier work; for Vit. E/Chol. ratio Incr.: above basal fasting ratio
[2] = per 1 mg, National Formulary; cited from earlier work
[3] = 400 IU daily soft gel capsule, six years, 601 subjects; cited from earlier work
LDL = settings: gel-capsule, ex vivo lag time; cited from earlier work
[4] = 150 mg natural and 150 mg synthetic daily in soft gelatin capsule, ten days; cited from earlier work
[5] = cited from earlier work
[6] = in vivo; cited from earlier work
[7] = Stability of vitamin E in fortified milks and orange juice during refrigerated storage; type: physicochemical; settings: 2-3 weeks in refrigerated milk
Text: The stability of all-rac E, oil was also monitored in regular 1% milkfat-containing milk (abbreviated “regular milk”). […] Although the starting levels of vitamin E were not identical in the beverages studied, all products were stored identically (see above) up to the time of the vitamin assay. Since the nominal shelf-life for milk is two weeks, and for refrigerated orange juice is four weeks, comparisons of vitamin E losses were made after three weeks storage.

[8] = Loss of vitamin E during milk processing (pasteurization); type: physicochemical; settings: heating, e.g. pasteurization
Procedure: In addition, as Applicant has described, normal processing of milk and other food products commonly includes heating, e.g., pasteurization.
Preparation of Vitamin E-Fortified Milks: Pasteurized non-fat (skim) milk containing 2,000 I.U. per quart vitamin A palmitate and 400 I.U. per quart vitamin D2 was prepared by H.P. Hood, Inc. (Chelsea Mass.). […] Fortified cream or oil was then blended with non-fortified skim milk to make three vitamin E-fortified milks containing fat (see below). […] Milk processing losses of vitamin E were measured and were compensated, by including an excess of vitamin E in the each milk formulation equal to the measured processing loss. Four milks were formulated as follows: […]
Preparation of Vitamin E-Fortified Milks: Preparation of milks, and the packaging and storage of milks by H.P. Hood, Inc. (Chelsea Mass.) were carried out as described for vitamin E-fortified milks in the first clinical study (see milk #3), except that the new milk (milk #21) was fortified with only 15 IU of all-rac-α-tocopherol acetate per serving. A portion of the milk batch was prepared without vitamins A and D (milk #20).

[9] = supplements greater than 100 IU per day, 6 years, elderly; cited from earlier work
[10] = ingestion of 1200 IU per day; cited from earlier work

## CC(=O)Oc1c(C)c(C)c2c(c1C)CCC(C)(CCCC(C)CCCC(C)CCCC(C)C)O2 (racemic) [all-rac-α-tocopherol acetate]
[1]; capsules 25 IU/day, above basal fasting level
  Plasma Vit E Increase: 19%
[1]; capsules 100 IU/day
  Vit. E/Chol. ratio Incr.: 35%
[1]; capsules 200 IU/day
  Vit. E/Chol. ratio Incr.: 65%
[1]; capsules 400 IU/day
  Vit. E/Chol. ratio Incr.: 115%
[2]
  specific activity (IU per milligram): 1.00 IU
[3]
  average increase in plasma vitamin E: 83%

## Cc1c(C)c2c(c(C)c1O)CCC(C)(CCCC(C)CCCC(C)CCCC(C)C)O2 (racemic) [all-rac-α-tocopherol]
[2]
  specific activity (IU per milligram): 1.10 IU
LDL
  minimum dose which significantly decreases the susceptibility of LDL to oxidation: 400 IU/per day

## CC(=O)Oc1c(C)c(C)c2c(c1C)CC[C@@](C)(CCC[C@H](C)CCC[C@H](C)CCCC(C)C)O2 [RRR-α-tocopherol acetate]
[2]
  specific activity (IU per milligram): 1.36 IU
[4]
  competitive bioavailability in plasma versus all-rac-α-tocopherol acetate: up to two-fold greater

## Cc1c(C)c2c(c(C)c1O)CC[C@@](C)(CCC[C@H](C)CCC[C@H](C)CCCC(C)C)O2 [RRR-α-tocopherol]
[2]
  specific activity (IU per milligram): 1.49 IU
[5]; 400-800 IU daily dose, basal 34.2 μmol/L
  plasma vitamin E level, elevated: 58 µmol/L
[5]; 400-800 IU daily dose
  average elevation in the plasma vitamin E level above the basal fasting level: 70%
[5]; 400 IU once per day in capsules, patients with coronary atherosclerosis
  reduction of the risk of non-fatal heart attacks: 77%

## Cc1c(C)c2c(c(C)c1O)CC[C@@](C)(CCC[C@H](C)CCC[C@H](C)CCCC(C)C)O2 [α-tocopherol]
[6]
  supplemented dose excreted in the feces: 80-90%

## vitamin E
[7]
  shelf-life loss of vitamin E: about 15%
[8]
  loss of vitamin E associated with processing, generally: 20-25%
  loss of vitamin E associated with processing, typically: 10-30%
[9]
  reduction of CHD mortality: 41-47%
  reduction of all-cause mortality: 27-34%
  reduction of cancer mortality: 22-23%
[10]
  adverse effects: no adverse effects have been observed
